Values quoted from earlier work as cited in US6916797B2, “α-arylethylpiperazine derivatives as neurokinin antagonists” (UCB, S.A., priority 2000, dated 2005).

Columns and labels:
NK1 receptors = NK1 receptors (Homo sapiens, UniProt P25103); settings: cited from earlier work
[1] = test system: verapamil-sensitive L-type Ca2+ binding site; settings: cited from earlier work
[2] = in vivo; cited from earlier work
[3] = after oral administration; cited from earlier work

Chain of NK1 receptors (P25103 whole entry): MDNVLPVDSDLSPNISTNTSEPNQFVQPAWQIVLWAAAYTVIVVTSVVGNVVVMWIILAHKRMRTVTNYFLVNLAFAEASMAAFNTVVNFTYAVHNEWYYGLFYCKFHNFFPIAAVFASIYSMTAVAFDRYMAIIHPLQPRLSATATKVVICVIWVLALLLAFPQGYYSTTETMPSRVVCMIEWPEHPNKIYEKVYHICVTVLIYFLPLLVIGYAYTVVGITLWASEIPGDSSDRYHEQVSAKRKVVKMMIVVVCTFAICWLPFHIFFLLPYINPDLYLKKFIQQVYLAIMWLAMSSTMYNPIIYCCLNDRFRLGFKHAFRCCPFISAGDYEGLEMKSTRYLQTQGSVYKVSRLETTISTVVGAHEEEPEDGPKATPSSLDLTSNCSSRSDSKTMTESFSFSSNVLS

SMILES	selectivity for NK1 receptors with respect to NK2 and NK3 receptors (NK1 receptors)	affinity for / interaction with the verapamil-sensitive L-type Ca2+ binding site [1]	outcome of first phase II clinical trials for asthma [2]	NK1 affinity (NK1 receptors)	activity in clinical trials for the treatment of migraine [3]
COc1ccccc1CN[C@H]1CCCN[C@H]1c1ccccc1 [CP-99,994]	good NK1 selectivity	lower interaction	unsuccessful		
COc1ccccc1CC(=N)N1C[C@@H]2C(=O)CCC(c3ccccc3)(c3ccccc3)[C@@H]2C1 [RP-67,580]				some NK1 affinity	
COc1ccccc1[C@H](C)C(=O)N1C[C@@H]2[C@H](C1)C(c1ccccc1)(c1ccccc1)CC[C@@]2(O)c1ccccc1OC [RP-100,893]					no better than placebo activity
COc1ccccc1CN[C@H]1C2CCN(CC2)[C@H]1C(c1ccccc1)c1ccccc1 [CP-96,345]	good selectivity	significant affinity			
